In general, solubility refers to the concentration that dissolves in the medium under given conditions.

Starred links: 1 amine or outer side, 2 acyl side, 3 side chain; linkers in the order of their positions; H or OH if unused. Positions of bridges follow the written chain, without caps; N, C: chain ends. Non-standard residues stand in square brackets, D forms with d. Residues, ends and D or L forms follow the SMILES beside them. Groups on a side chain read outwards from the residue. Chains are numbered I, II in the order given. *: point of attachment. C18 diacid = O=C(O)CCCCCCCCCCCCCCCCC(=O)*; γGlu = O=C(O)[C@H](CCC(=O)[*:2])N[*:1]; NMeY = CN[C@@H](Cc1ccc(O)cc1)C(=O)O; AEEA = NCCOCCOCC(=O)O; Aib = CC(C)(N)C(=O)O

The series can be described thus: Solubility in phosphate buffer pH 7.4. The note with it: pH 7.4, aqueous buffer. The gist of the method: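 Solubility at pH 7.4 determined by stepwise addition of 200 mM phosphate buffer in 100 μL increments to 3 mg peptide, mixing briefly each time, until no insoluble material remained, then measured by liquid chromatography.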
Setting [1] is: pH 7.4 Phosphate Buffer - Solubility, 200 mM Phosphate buffer pH 7.4.

In turn, `CC[C@H](C)[C@H](NC(=O)[C@H](CCCNC(=N)N)NC(=O)[C@H](CC(=O)O)NC(=O)[C@H](CCCCNC(=O)CNC(=O)CNC(=O)CNC(=O)CNC(=O)CNC(=O)CCCCCCCCCCCCCCCCC(=O)O)NC(=O)[C@H](C)NC(=O)[C@@H](NC(=O)[C@H](CO)NC(=O)[C@H](Cc1ccc(O)cc1)NC(=O)[C@H](CC(=O)O)NC(=O)[C@H](CO)NC(=O)[C@@H](NC(=O)[C@H](Cc1ccccc1)NC(=O)[C@@H](NC(=O)CNC(=O)[C@H](CCC(=O)O)NC(=O)C(C)(C)NC(=O)[C@H](Cc1ccc(O)cc1)NC)[C@@H](C)O)[C@@H](C)CC)[C@@H](C)CC)C(=O)N[C@@H](C)C(=O)N[C@@H](CCC(N)=O)C(=O)N[C@@H](CCC(N)=O)C(=O)N[C@@H](CC(N)=O)C(=O)N[C@@H](Cc1ccccc1)C(=O)N[C@H](C(=O)N[C@@H](CC(N)=O)C(=O)N[C@@H](Cc1c[nH]c2ccccc12)C(=O)N[C@@H](CC(C)C)C(=O)N[C@@H](CC(C)C)C(=O)N[C@@H](C)C(=O)N[C@@H](CCC(N)=O)C(=O)N[C@@H](CO)C(=O)N1CCC[C@H]1C(=O)N[C@@H](CO)C(=O)N[C@@H](CO)C(=O)NCC(=O)N[C@@H](C)C(=O)N1CCC[C@H]1C(=O)N1CCC[C@H]1C(=O)N1CCC[C@H]1C(=O)N[C@@H](CO)C(=O)O)C(C)C` [Compound 292] displayed a solubility under setting [1] of less than 6000 µg/mL.
In the case of `CC[C@H](C)[C@H](NC(=O)[C@H](CCCNC(=N)N)NC(=O)[C@H](CC(=O)O)NC(=O)[C@H](CC(C)C)NC(=O)[C@H](C)NC(=O)[C@@H](NC(=O)[C@H](CO)NC(=O)[C@H](Cc1ccc(O)cc1)NC(=O)[C@H](CC(=O)O)NC(=O)[C@H](CO)NC(=O)[C@@H](NC(=O)[C@H](Cc1ccccc1)NC(=O)[C@@H](NC(=O)CNC(=O)[C@H](CCC(=O)O)NC(=O)C(C)(C)NC(=O)[C@H](Cc1ccc(O)cc1)NC)[C@@H](C)O)[C@@H](C)CC)[C@@H](C)CC)C(=O)N[C@@H](C)C(=O)N[C@@H](CCC(N)=O)C(=O)N[C@@H](CCC(N)=O)C(=O)N[C@@H](CCCCNC(=O)COCCOCCNC(=O)COCCOCCNC(=O)CC[C@H](NC(=O)CC[C@H](NC(=O)CCCCCCCCCCCCCCCCC(=O)O)C(=O)O)C(=O)O)C(=O)N[C@@H](Cc1ccccc1)C(=O)N[C@H](C(=O)N[C@@H](CC(N)=O)C(=O)N[C@@H](Cc1c[nH]c2ccccc12)C(=O)N[C@@H](CC(C)C)C(=O)N[C@@H](CC(C)C)C(=O)N[C@@H](C)C(=O)N[C@@H](CCC(N)=O)C(=O)N[C@@H](CCCNC(=N)N)C(=O)NCC(=O)O)C(C)C` [Compound 286] (H-[NMeY][Aib]EGTFISDYSIALDRIAQQK([AEEA-AEEA-γGlu-γGlu-C18 diacid])FVNWLLAQRG-OH), the solubility is less than 6000 µg/mL.
Same read-out and setting: the same measure for `CC[C@H](C)[C@H](NC(=O)[C@H](CO)NC(=O)[C@H](Cc1ccc(O)cc1)NC(=O)[C@H](CC(=O)O)NC(=O)[C@H](CO)NC(=O)[C@@H](NC(=O)[C@H](Cc1ccccc1)NC(=O)[C@@H](NC(=O)CNC(=O)[C@H](CCC(=O)O)NC(=O)C(C)(C)NC(=O)[C@H](Cc1ccc(O)cc1)NC)[C@@H](C)O)[C@@H](C)CC)C(=O)N[C@@H](C)C(=O)N[C@@H](CCCCNC(=O)CNC(=O)CNC(=O)[C@@H]1CCCN1C(=O)[C@H](C)NC(=O)[C@@H]1CCCN1C(=O)[C@H](C)NC(=O)[C@@H]1CCCN1C(=O)CCCCCCCCCCCCCCCCC(=O)O)C(=O)N[C@@H](CC(=O)O)C(=O)N[C@@H](CCCNC(=N)N)C(=O)NC(C)(C)C(=O)N[C@@H](C)C(=O)N[C@@H](CCC(N)=O)C(=O)NC(C)(C)C(=O)N[C@@H](CC(=O)O)C(=O)N[C@@H](Cc1ccccc1)C(=O)N[C@H](C(=O)N[C@@H](CC(N)=O)C(=O)N[C@@H](Cc1c[nH]c2ccccc12)C(=O)N[C@@H](CC(C)C)C(=O)N[C@@H](CC(C)C)C(=O)N[C@@H](C)C(=O)N[C@@H](CCC(N)=O)C(=O)N[C@@H](CCCCN)C(=O)NCC(=O)O)C(C)C` [Compound 289] (I: H-[NMeY][Aib]EGTFISDYSIAKDR[Aib]AQ[Aib]DFVNWLLAQKG-OH / II: {C18 diacid}-PAPAPGG; amide I:14-II:C): not below 10000 µg/mL.
Under setting [1], `CC[C@H](C)[C@H](NC(=O)[C@H](CO)NC(=O)[C@H](Cc1ccc(O)cc1)NC(=O)[C@H](CC(=O)O)NC(=O)[C@H](CO)NC(=O)[C@@H](NC(=O)[C@H](Cc1ccccc1)NC(=O)[C@@H](NC(=O)CNC(=O)[C@H](CCC(N)=O)NC(=O)C(C)(C)NC(=O)[C@H](Cc1ccc(O)cc1)NC)[C@@H](C)O)[C@@H](C)CC)C(=O)N[C@@H](C)C(=O)N[C@@H](CC(C)C)C(=O)N[C@@H](CC(=O)O)C(=O)N[C@@H](CCCNC(=N)N)C(=O)N[C@@H](CCCCNC(=O)CNC(=O)CNC(=O)CNC(=O)CNC(=O)CNC(=O)CNC(=O)CCCCCCCCCCCCCCCCC(=O)O)C(=O)N[C@@H](Cc1c[nH]cn1)C(=O)N[C@@H](CCC(N)=O)C(=O)NC(C)(C)C(=O)N[C@@H](CC(N)=O)C(=O)N[C@@H](Cc1ccccc1)C(=O)N[C@H](C(=O)N[C@@H](CC(N)=O)C(=O)N[C@@H](Cc1c[nH]c2ccccc12)C(=O)N[C@@H](CC(C)C)C(=O)N[C@@H](CC(C)C)C(=O)N[C@@H](C)C(=O)N[C@@H](CCC(N)=O)C(=O)N[C@@H](CCCNC(=N)N)C(=O)N1CCC[C@H]1C(=O)N[C@@H](CO)C(=O)N[C@@H](CO)C(=O)NCC(=O)N[C@@H](C)C(=O)N1CCC[C@H]1C(=O)N1CCC[C@H]1C(=O)N1CCC[C@H]1C(=O)N[C@@H](CO)C(=O)N[C@@H](CCCNC(=N)N)C(N)=O)C(C)C` [Compound 278] yielded a solubility of less than 15000 µg/mL.
On the same count and under the same terms, the same measure for `CC[C@H](C)[C@H](NC(=O)[C@H](CO)NC(=O)[C@H](Cc1ccc(O)cc1)NC(=O)[C@H](CC(=O)O)NC(=O)[C@H](CO)NC(=O)[C@@H](NC(=O)[C@H](Cc1ccccc1)NC(=O)[C@@H](NC(=O)CNC(=O)[C@H](CCC(=O)O)NC(=O)C(C)(C)NC(=O)[C@H](Cc1ccc(O)cc1)NC)[C@@H](C)O)[C@@H](C)CC)C(=O)N[C@@H](C)C(=O)N[C@@H](CC(C)C)C(=O)N[C@@H](CC(=O)O)C(=O)N[C@@H](CCCNC(=N)N)C(=O)N[C@@H](CCCCNC(=O)CNC(=O)CNC(=O)CNC(=O)CNC(=O)CNC(=O)CCCCCCCCCCCCCCCC(=O)O)C(=O)N[C@@H](Cc1c[nH]cn1)C(=O)N[C@@H](CCC(N)=O)C(=O)NC(C)(C)C(=O)N[C@@H](CC(N)=O)C(=O)N[C@@H](Cc1ccccc1)C(=O)N[C@H](C(=O)N[C@@H](CC(N)=O)C(=O)N[C@@H](Cc1c[nH]c2ccccc12)C(=O)N[C@@H](CC(C)C)C(=O)N[C@@H](CC(C)C)C(=O)N[C@@H](C)C(=O)N[C@@H](CCC(N)=O)C(=O)N[C@@H](CCCNC(=N)N)C(=O)N1CCC[C@H]1C(=O)N[C@@H](CO)C(=O)N[C@@H](CO)C(=O)NCC(=O)N[C@@H](C)C(=O)N1CCC[C@H]1C(=O)N1CCC[C@H]1C(=O)N1CCC[C@H]1C(=O)N[C@@H](CO)C(=O)O)C(C)C` [Compound 259]: less than 6000 µg/mL.

Source of the values: patent US20230143604A1, “QW DOSING OF GIP RECEPTOR AGONIST PEPTIDE COMPOUNDS AND USES THEREOF” (TAKEDA PHARMACEUTICAL COMPANY LIMITED, priority 2020, published 2023).
